Assay results as given in patent publication US7410960B2, “Metal complexes and therapeutic uses thereof” (The University of Western Sydney, priority 2001, dated 2008).
Values joined by “and” are separate entries in the source; they are usually repeats but may differ in a detail not shown here. Identical values can stand only once. Like-named read-outs stand apart in the source and are kept apart here.

Key:
KYSE 520 (esophagus) = assay: Growth inhibition IC50, KYSE 520 (esophagus) cell line; assay type: cell-based; details: value (standard deviation)
Experimental: (§1) When we compare the effect of changing the diamine from the non-chiral 1,2-diaminoethane (en) to the chiral ligands and 2S,3S-diaminobutane (2S,3S-bn) and 2R,3R-diaminobutane (2R,3R-bn) then the concentration inhibiting the exponential growth of cells to 50% is further reduction from 27.0 to 1.11 and 0.32 μM respectively.

A-427 (lung) = assay: Growth inhibition IC50, A-427 (lung) cell line; assay type: cell-based; details: value (standard deviation)
Experimental: as §1

LCLC-103H (lung) = assay: Growth inhibition IC50, LCLC-103H (lung) cell line; assay type: cell-based; details: value (standard deviation)
Experimental: as §1

5637 (bladder) = assay: Growth inhibition IC50, 5637 (bladder) cell line; assay type: cell-based; details: value (standard deviation)
Experimental: as §1

[1] = test system: L1210 mouse leukaemia cells; assay: CC growth inhibition assay, L1210; assay type: cell-based; details: Test CC, 40 μM highest dose tested
Excerpt: (§2) The data presented in Table3 is the results collected from the growth inhibition studies of selected compounds with the following cell lines: L1210 (mouse leukaemia cells), 2008 (human ovarian carcinoma cells), L1210/DDP and C13*5 (acquired cisplatin resistance) and SKOV-3 (intrinsic cisplatin resistance).

[2] = test system: L1210/DDP cisplatin-resistant cells; assay: CC growth inhibition assay, L1210/DDP; assay type: cell-based, mouse; details: Test CC, 40 μM highest dose tested
Excerpt: as §2

[3] = test system: 2008 human ovarian carcinoma cells; assay: Sulphorhodamine B (SRB) growth inhibition assay, 2008; assay type: cell-based; details: Test SRB
Excerpt: as §2

[4] = test system: C13*5 cisplatin-resistant cells; assay: Sulphorhodamine B (SRB) growth inhibition assay, C13; assay type: cell-based, human; details: Test SRB, acquired cisplatin resistance
Excerpt: as §2

[5] = test system: SKOV-3 cells (intrinsically resistant to cisplatin); assay: Sulphorhodamine B (SRB) growth inhibition assay, SKOV-3; assay type: cell-based; details: Test SRB, intrinsic cisplatin resistance
Excerpt: as §2

[6] = first run, read-out: IC50 5637 (bladder)
[7] = repeat run, read-out: IC50 5637 (bladder) Repeat
[8] = listed as [Pt(S,S-dach)(phen)](ClO4)2
[9] = listed as [Pt(S,S-bn)(phen)]Cl2
[10] = listed as [Pt(R,R-dach)(phen)](ClO4)2
[11] = listed as [Pt(R,R-bn)(phen)]Cl2

Row | Molecule | IC50 (KYSE 520 (esophagus)) [µM] | IC50 (A-427 (lung)) [µM] | IC50 (LCLC-103H (lung)) [µM] | IC50 (5637 (bladder); [6]) [µM] | IC50 (5637 (bladder); [7]) [µM] | also measured
1 | N.N.[Cl][Pt][Cl] [CDDP, cis-diamminedichloroplatinum (II), reference compound] | 6.63 | 4.46 | 1.44 | 0.88 | 0.43 | –
2 | [Cl-].[Cl-].c1cc2ccc3ccc[n+]4c3c2[n+](c1)[Pt-2]41[NH2+]CC[NH2+]1 [[Pt(en)(phen)]Cl2, reference compound] | 49.1 | 24.1 | 41.2 | 27 | 23.7 | –
3 | CC(N)C(C)N.[Cl-].[Cl-].[Pt+2].c1cnc2c(c1)ccc1cccnc12 [[Pt(meso-2,3-bn)(phen)]Cl2] [(2S,3R-butanediamine)(1,10-phenanthroline)platinum(II) cation] | 1.09 | 0.92 | 1.07 | 0.61 | 0.72 | –
4 | NCCN.[Cl-].[Cl-].[Pt+2].c1cnc2c(c1)c1nccnc1c1cccnc12 [[Pt(en)(dpq)]Cl2] | 19.4 | 16.4 | 23.6 | 16.7 | – | –
5 | N[C@H]1CCCC[C@@H]1N.[O-][Cl+3]([O-])([O-])[O-].[O-][Cl+3]([O-])([O-])[O-].[Pt+2].c1cnc2c(c1)ccc1cccnc12 [[Pt(phen)(S,S-dach)](ClO4)2, (1S,2S-cyclohexanediamine)(1,10-phenanthroline)platinum(II) cation] | – | – | – | – | 0.15 | IC50 [1]: 0.13 µM; IC50 [2]: 0.28 ± 0.09 µM; IC50 [3, 8]: 0.37 µM and 0.45 µM; IC50 [4, 8]: 0.56 µM and 0.88 µM; IC50 [5, 8]: 0.31 µM and 0.42 µM
6 | (N,N′-dimethyl-1R,2R-cyclohexanediamine)(1,10-phenanthroline)platinum(II) cation [[Pt(phen)(Me2-R,R-dach)](ClO4)2] | – | – | – | – | 23.6 | –
7 | (N,N′-dimethyl-1S,2S-cyclohexanediamine)(1,10-phenanthroline)platinum(II) cation [[Ptphen)(Me2-S,S-dach](ClO4)2] | – | – | – | – | 55.6 | IC50 ([1]; listed as [Pt(Me2—S,S-dach)(phen)](ClO4)2): 12 µM
8 | CC(N)C(C)N.[Cl-].[Cl-].[Pt+2].c1cnc2c(c1)ccc1cccnc12 [[Pt(2S,3S-bn)(phen)]Cl2] [(2S,3S-butanediamine)(1,10-phenanthroline)platinum(II) cation] | 1.87 | 1.35 | 2.39 | 1.11 | 0.98 | IC50 [1, 9]: 3.8 µM and 3 µM; IC50 [2, 9]: 5.3 µM and 8 µM; IC50 [3, 9]: 7.2 µM and 11 µM; IC50 [4, 9]: 26 µM and 22 µM and 28 µM; IC50 [5, 9]: 9.8 µM and 9.2 µM and 12 µM
9 | N[C@@H]1CCCC[C@H]1N.[O-][Cl+3]([O-])([O-])[O-].[O-][Cl+3]([O-])([O-])[O-].[Pt+2].c1cnc2c(c1)ccc1cccnc12 [[Pt(phen)(R,R-dach)](ClO4)2, (1R,2R-cyclohexanediamine)(1,10-phenanthroline)platinum(II) cation] | – | – | – | – | 0.54 | IC50 [1, 10]: 1.4 µM and 1.6 µM; IC50 [2, 10]: 4.3 µM and 4.5 µM; IC50 [3, 10]: 3.3 µM and 3.1 µM; IC50 [4, 10]: 5.1 µM and 9.2 µM; IC50 [5, 10]: 3.3 µM and 3.6 µM
10 | CC(N)C(C)N.[Cl-].[Cl-].[Pt+2].c1cnc2c(c1)ccc1cccnc12 [[Pt(2R,3R-bn)(phen)]Cl2] [(2R,3R-butanediamine)(1,10-phenanthroline)platinum(II) cation] | 0.67 | 0.54 | 0.78 | 0.32 | 0.43 | IC50 [1, 11]: 1.5 µM; IC50 [2, 11]: 2.5 µM and 1.9 µM; IC50 [4, 11]: 5.2 µM and 9 µM and 7.4 µM
